Data on 4 molecules can be found in patent US9675702B2, “Methods and compositions for the sustained release of chromium” (JDS Therapeutics, LLC, priority 2007, dated 2017).

The subject of one data set is rats. The settings on record: cited from earlier work.
Another data set relates to Wistar rats. Put plainly: 12-week chromium supplementation in water of rats fed normal or high fat diet; serum glucose, cholesterol, triglycerides, free fatty acids. The class given is in vivo. To be noted: for serum triglyceride levels / free fatty acid levels / total serum cholesterol levels / serum glucose levels: 12 weeks; for total serum cholesterol levels: rats fed a normal diet (FIG. 3A); for reduction in serum glucose levels compared with other chromium supplementation: same total elemental chromium; for serum glucose levels: 1.43 μg chromium in water. Here is the method: Wistar rats were reared at the temperature of (22±2° C.), humidity (55±5%) and a 12/12 h light/dark cycle. Pellet food and water were provided ad libitum. Rats were randomly assigned to one of eight treatment groups. Group 1: Control rats were fed standard diet (12% of calories as fat) for 12 weeks. Group 2: Rats were fed standard diet with chromium picolinate ([…] 1.43 μg chromium) included in the water for 12 weeks. Group 3: […] Group 4: […] Group 5: Rats were fed high fat diet (40% of calories as fat) for 12 weeks. Group 6: Rats were fed high-fat diet (40% of calories as fat) and with chromium picolinate (14.3 μg, providing 1.43 μg chromium) included in the water for 12 weeks. Group 7: […] Group 8: […] Bodyweight, serum glucose, composite insulin sensitivity index (CISI), serum cholesterol, serum triglycerides and serum free fatty acid levels were measured. The baseline levels for the control rats (no chromium supplementation) that were fed normal or high fat diets are shown in Table 1, below. Serum glucose levels, serum cholesterol levels, serum triglyceride levels, and free fatty acid levels were measured in all groups after twelve weeks.

Another data set has as its system skeletal muscle cells. As to the kind of experiment: Glucose uptake ([3H]-deoxyglucose) in cultured skeletal muscle cells with or without insulin. The class given is cell-based. The settings on record: insulin-stimulated cells; versus cultures without chromium supplementation. Here is the method: The following example describes experiments that compared the effects of chromium supplementation in the form of chromium picolinate versus a combination of chromium picolinate:chormium histidinate (1:1 elemental chromium) on glucose uptake in skeletal muscle cells. The amounts of chromium picolinate and the combination were adjusted so as to provide equimolar amounts of elemental chromium. […] To assess glucose uptake, [^3H]C-deoxyglucose was added to cultures of skeletal muscle, in media with or without insulin and with or without the indicated chromium supplementation. Uptake of the labeled glucose by the cells was calculated.

The conditions of data set [1]: cited from earlier work.
[2] abbreviates: rats fed a high fat diet (FIG. 4B).
Setting [3] is: rats fed a high fat diet (FIG. 5B).
Where [4] appears, read: rats fed a normal diet (FIG. 4A).
The mark [5] stands for this setting: rats fed a normal diet (FIG. 5A).

Read-outs that look alike come from different tables or passages of the source.

Take chromium picolinate: the toxic effects result with rats (rat, in vivo) is reported as “without toxic effects”. Further, the serum triglyceride levels result with Wistar rats (setting [2]) and with Wistar rats (setting [4]) was “significant decrease” throughout. The “free fatty acid levels” value in the data set with Wistar rats (setting [3]) and with Wistar rats (setting [5]) was “significant decrease” throughout. In the data set on Wistar rats, the “total serum cholesterol levels” value is given as “significant decrease”. Moreover, the glucose uptake result in the data set with skeletal muscle cells is recorded as “stimulated glucose uptake”.
On to `[Cl][Cr]([Cl])[Cl]` [chromium chloride], for which, in the data set on rats (rats, levels several thousand times the upper limit of the ESADDI for chromium for humans (based on body weight)), the toxic effects result is on record as “without toxic effects”.
With `N[C@@H](Cc1c[nH]cn1)C(=O)O` [histidine], in data set [1], the pKa – broadly, the negative logarithm of the acid dissociation constant – is about 6.0.
As to chromium histidinate, the “reduction in serum glucose levels compared with other chromium supplementation” value in the data set on Wistar rats (high fat diet rats (FIG. 2B)) and with Wistar rats (normal diet rats (FIG. 2A)) was “significantly greater degree than chromium picolinate” throughout. For the same molecule, the serum glucose levels entry in the data set on Wistar rats (high-fat fed rats) and with Wistar rats (normal diet rats) was “decreased serum glucose levels” in each case. In addition, the serum triglyceride levels result in the data set with Wistar rats (setting [2]) and in the data set with Wistar rats (setting [4]) was “significant decrease” each time. In addition, the “free fatty acid levels” value with Wistar rats (setting [3]) and with Wistar rats (setting [5]) was “significant decrease” throughout. Moreover, in the data set on Wistar rats, the “total serum cholesterol levels” value is recorded as “significant decrease”.
